# Measurements reported in US20030109537A1, “Methods and materials for treating bone conditions” (priority 2001, published 2003).
# Experiments:
# [1] = test system: rat model for parathyroid bone disease; assay: Rat model for parathyroid bone disease: pulsatile vs continuous PTH, bone histomorphometry; format: in vivo
# Protocol: (§1) Induction of parathyroid bone disease. Three month-old female Sprague-Dawley rats (Harlan Sprague-Dawley, Inc., Indianapolis, Ind.) were randomly divided into 3 groups, with 5 rats per group. In group 1 (pulsatile or intermittent PTH), each rat received 80 μg/kg/day human PTH (1-34) (hPTH) in vehicle (150 mM NaCl, 1 mM HCl and 2% heat-inactivated rat serum) by subcutaneous (s.c.) injection once daily for 7 days. In group 2 (vehicle), an osmotic pump (Alza Corp., Mountainview, Calif.) that delivered vehicle alone at a rate of 1 μl/hr for 7 days was implanted in each rat. In group 3 (continuous PTH), an osmotic pump that delivered 40 μg/kg/day hPTH at a rate of 1 μl/hr for 7 days was implanted in each rat. On day 8, all rats were anesthetized with ketamine (50 mg/kg): xylazine HCl (5 mg/kg) and sacrificed by decapitation. Both tibiae were removed from each rat. Right tibiae were fixed by immersion in 70% ethanol then processed for bone histology to verify the appearance of peritrabecular fibrosis. Left tibiae were frozen in liquid N2 and stored at −80° C. until processed for RNA isolation.
# Bone histomorphometry. Proximal metaphyses were dehydrated in a graded series of ethanol, then infiltrated and embedded in methymethacrylate (Fisher Scientific, Fair Lawn, N.J.). After embedding, 5 μm sections were cut using a microtome (Reichert-Jung Model 2065, Heidelberg, Germany), and the sections were mounted unstained. Dynamic histomorphometric cancellous bone measurements were made in the unstained sections using fluorescent microscopy to detect the injected tetracycline and calcein markers. After obtaining the cancellous bone measurements, consecutive sections were stained with toluidine blue for bone cell and peritrabecular fibrosis measurements using light microscopy. A standard sampling site of 2.8 mm was located in the secondary spongiosa of the metaphysis at 1.5 mm distal to the growth plate.
# All histomorphometric measurements were made with an Osteomeasure image analysis system (OsteoMetrics, Atlanta, Ga.) coupled to a photomicroscope and personal computer. All parameters were calculated according to standardized nomenclature. See, for example, Parfitt et al., J. Bone Miner. Res., 2:595-610 (1987). Bone volume was defined as the percentage of tissue volume consisting of cancellous bone. Tetracycline and calcein labels were determined as the percentage of bone perimeter labeled with fluorochrome. Mineral apposition rate (MAR) was defined as the average width between tetracycline and calcein label divided by interlabel time of 6 days. Bone formation rate (BFR) was defined as the product of MAR and the calcein label perimeter, and was expressed per bone surface (BFR/BS), bone volume (BFR/BV), or tissue volume (BFR/TV). Osteoblast surface was defined as a palisade of large basophilic cuboidal cells directly lying on top of the osteoid, and was expressed as a percent of bone perimeter. Osteoclast surface was defined as the bone perimeter lined by multinucleated cells regardless of the presence of erosion. Fibrotic perimeter was defined as the bone perimeter lined by multilayers of fibroblasts.
# A rat model of hyperparathyroidism (HPT) was developed as described in Example 1, and compared to intermittent PTH treatment. PTH results in major changes in bone metabolism in less than 1 week and these short-term changes accurately predict the long-terms effects of the hormone. To induce an anabolic course of PTH action, human recombinant PTH was administered s.c. (80 μg/kg/d). […] In contrast, no increase in osteoclast number was noted.
# To mimic HPT, hPTH was infused continuously at the same dose rate (80 μg/kg/d) using a s.c. implanted osmotic pump. […] In addition, bone formation in rats treated continuously or intermittently with PTH had similar increases in bone formation after 1 week. Cancellous osteopenia was not observed. […]
# [2] = test system: genes for cytokines and their receptors; assay: cDNA microarray analysis of PTH-regulated genes in proximal tibial metaphysis; format: in vivo, rat; conditions: for genes regulated (of 8500 rat genes, Affymetrix): p<0.05
# Protocol: as §1
# Isolation of RNA. Frozen proximal tibial metaphyses were individually homogenized in guanidine isothiocyanate using a Spex freezer mill (Industries, Inc., Edison, N.J.). Total RNA was extracted from the homogenate using a modified organic solvent method. See Chomczynski et al., Anal. Biochem., 162:156-159 (1987). Isolated RNA yields were determined spectrophotometrically at 260 nm using standard methods.
# cDNA microarray analysis. cDNA probes were generated by reverse transcription (Superscript II, Life Technologies, Rockville, Md.) using 1 μg total RNA isolated from the proximal tibial metaphysis of rats in groups 1, 2, and 3. First-strand cDNA probes were primed by the addition of oligo dT and subsequently labeled with [α-^33P]dCTP (ICN Radiochemicals Costa Mesa, Calif.). The labeled probes then were purified by passage through a Sephadex G-50 DNA Grade Column (Amersham Pharmacia Biotech AB, Uppsala, Sweden). The purified probes were hybridized to a rat genefilter microarray containing 5531 genes (GF 300; Research Genetics, Huntsville, Ala.). according to the manufacturer's recommended protocol. A micro-array system from Affymetrix, which contains 8500 genes, also was used. After hybridization, the array was washed and wrapped with plastic wrap before placing in a phosphor imaging cassette containing a Cyclone Storage Phosphor Screen (Packard, Downers Groves, Ill.). After 24 hours, the screen was imaged and the resulting images analyzed using Pathways 2.01 software to compare the signal intensities of spots.
# Candidate genes associated with peritrabecular fibrosis were identified with cDNA microarrays containing 5531 or 8500 genes as described in Example 1. Approximately 14% of the total genes measured were differentially expressed by at least 2.5-fold between pulsatile and continuous PTH-treated groups. […] Of the regulated genes, 158 were unique to intermittent administration of PTH and 759 to continuous administration of PTH. An additional 158 genes were common to both treatments.
# The list of candidate genes was examined to determine if any of the genes encoded growth factors. More specifically, it was determined if the differentially expressed genes were growth factors produced on or near bone surfaces, were chemotactic to fibroblasts, were able to stimulate fibroblast proliferation, or could induce bone resorption. One of the candidate genes, PDGF, a known mitogenic and chemotactic factor for fibroblasts, met all these criteria.
# [3] = test system: PDGF-A positive mast cells; assay: Immunohistochemistry for PDGF-A on bone samples; format: in vivo, rat
# [4] = pulsatile PTH 80 μg/kg/day s.c. once daily 7 days, rats
# [5] = pulsatile PTH 80 μg/kg/day s.c. once daily 7 days, rats, vs untreated control
# [6] = continuous PTH, rat proximal tibial metaphysis, gene microarray
# [7] = continuous administration of PTH
# [8] = intermittent administration of PTH
substance,measurement,setting,value
human PTH (1-34),osteoclast number,"[1]; PTH s.c. 80 μg/kg/d, rats",no increase
same,Cancellous osteopenia,"[1]; PTH-treated rats, 1 week",not observed
same,PTH pulse duration having the same effect as continuous PTH,"[1]; programmed implantable osmotic pump, same quantity of PTH, rats",6 h
same,Marrow fibrosis,[1]; [4],Not observed^a
same,Osteoid surface,[1]; [4],Minimal^a
same,Osteoblast perimeter,[1]; [5],↑^a
same,mRNA levels for one matrix proteins,[1]; [5],↑^a
same,total genes differentially expressed by at least […] between pulsatile and continuous PTH-treated groups,[2]; cDNA microarrays,Approximately 14%
same,"BMP-1 gene expression, Fold Change",[2]; [6],1.3 fold
same,"BMP-3 gene expression, Fold Change",[2]; [6],19 fold
same,"BMP-6 gene expression, Fold Change",[2]; [6],1.6 fold
same,"COX2 gene expression, Fold Change",[2]; [6],1.8 fold
same,"FGF gene expression, Fold Change",[2]; [6],5.1 fold
same,"FGF receptor-1 gene expression, Fold Change",[2]; [6],2.7 fold
same,"IL-6 receptor gene expression, Fold Change",[2]; [6],−1.2 fold
same,"IL-12p40 gene expression, Fold Change",[2]; [6],1.3 fold
same,"PGE2 receptor EP3 gene expression, Fold Change",[2]; [6],1.7 fold
same,"PTH receptor gene expression, Fold Change",[2]; [6],3.8 fold
same,"TGF-β1 gene expression, Fold Change",[2]; [6],1.5 fold
same,"TGF-β3 gene expression, Fold Change",[2]; [6],1.9 fold
same,"PDGF-A gene expression, Fold Change","[2]; continuous PTH, rat proximal tibial metaphysis, gene microarray, n = 5",85 fold
same,number of regulated genes unique to the regimen,[2]; [7],759
same,"genes regulated (of 8500 rat genes, Affymetrix)",[2]; [7],10.4%
same,number of regulated genes unique to the regimen,[2]; [8],158
same,"genes regulated (of 8500 rat genes, Affymetrix)",[2]; [8],3.6%
same,number of regulated genes common to both treatments,[2]; intermittent and continuous PTH,158
same,mast cell staining for PDGF-A peptide,[3]; PTH-treated rats,stained intensely
same,number of PDGF-A positive mast cells,"[3]; PTH-treated vs vehicle, PTH+trapidil treated",increased
